# According to patent US9943560B2, “Medical compositions containing liquorice extracts with synergistic effect” (priority 2010, dated 2018):
# Values joined by “and” are separate entries in the source; they are usually repeats but may differ in a detail not shown here. Equal entries are not always repeated.
# Columns and labels:
# [1] = test system: SGC-7901 cells; assay: In vitro killing of SGC-7901 cells (MTS, 72 h); type: cell-based, human; conditions: SGC-7901, 72 h
# Description: SGC-7901 cells i.e. human gastric cancer cells which are bought from Cell Bank of Chinese Academy of Sciences/Shanghai Institute of Life Sciences Cell Resource Center of Chinese Academy of Sciences are adherent cells.
# (§1) 90% 1640 culture solution plus 10% newborn calf serum (NCS), 100 ml in total, and then add lml miscible liquids containing 1% penicillin and 1% streptomycin.
# Cultivate it in an incubator of 37° C. with CO2 of 5 percent. The cells will passage once every 3 days, and carry out the experiment when the cells enter their logarithmic growth period after two or three times of passage.
# 3. Experiment on In Vitro Killing of MCF-7 Cell Source
# [2] = test system: Colon 38; assay: Drug combination on inhibiting tumor cells, Combination Index (Chou-Talalay), Colon 38; type: cell-based, murine; conditions: partner drugs as named in the sentence (G007, I3C, DIM, Cis-platinum)
# Excerpt: According to the cells and experiment methods used in Embodiment 2, differences are incurred from that dose concentration is confirmed by the following methods: when two drugs are combined, the concentration of one drug is chosen to be approximate to but smaller than IC50 while the concentration of other drugs is chosen to be in gradient dilution, to perform a series of experiments. When it is experimented that 50% tumor cells are inhibited, then the concentration of all drugs used at that moment is recorded as their IC50 value, and the CI value of the two drugs can be calculated with the formula in the above document.
# [3] = test system: colon cancer cell strain colon38 transplanted tumor; assay: Anti-tumor effect on colon38 transplanted tumor in mice; type: in vivo; conditions: for Death number: dead animals of 10 per group, represents side effects; for Death number / Average weight of tumor / Tumor inhibiting rate: dose as in Table VI; for Average weight of tumor: mice, once a week, four times; for Average weight of tumor / Tumor inhibiting rate: after four weeks; for Tumor inhibiting rate: vs CK group
# Excerpt: Based on the method described in Pharmacology Research Methodology of Chinese Medicine (Chinese TCM Publishing House), test the anti-tumor effects of Chalcone A, G007, AG007-16 etc prepared in Embodiment 1, chemotherapy drugs (5-fluorouracil) and HBD09 on animal model of human cancer heterogeneity transplanted tumor. 5-fluorouracil (short for fu) is a broad-spectrum anti-tumor drug and mainly used to cure digestive tract tumor; the common adverse reactions are sicchasia, anorexia or vomiting, abdominal discomfort or diarrhea.
# The dose given is as shown in Table VI; intragastric administration/ or injection administration is given once a week and four times in total.
# [4] = test system: Colon38 cells; assay: In vitro killing of Colon38 cells (MTS, 72 h); type: cell-based, murine; conditions: Colon38, 72 h
# Description: 1. Experimental Sources of In Vitro Killing Colon38 Cells
# Colon38 cells i.e. murine colon carcinoma cells, which was gifted from Dept. of Pharmacology, Yale Medical School and are a kind of adherent cells.
# as §1
# Cultivate it in an incubator of 37° C. with 5% CO2. The cells will passage every 3 days, and carry out the experiment when the cells enter their logarithmic growth period after two or three times of passage.
# 2. Experiment on In Vitro Killing of SGC-7901 Cell Source: […]
# [5] = test system: postprandial blood glucose of Type 2 diabetics; assay: Clinical observation: postprandial blood glucose control in high-blood-glucose patients; type: in vivo, human
# Excerpt: The postprandial blood glucose of Type 2 diabetics not sensitive to insulin is an important index of abnormal glucose metabolism and can be used to test the effect of drugs in reducing blood glucose.
# [6] = test system: MCF-7 cells; assay: In vitro killing of MCF-7 cells (MTS, 72 h); type: cell-based, human; conditions: MCF-7, 72 h
# Description: MCF-7 cells i.e. human breast cancer cells, which are bought from American ATCC, is a kind of adherent cells.
# 90% 1640 medium+10% fetal calf serum+30mmol/L Hepes+6 μg/ml insulin.
# Its culture conditions and experimental procedures are all the same with that of the above method 1.
# [7] = test system: PC-3 cells; assay: In vitro killing of PC-3 cells (MTS, 72 h); type: cell-based; conditions: PC-3, 72 h
# Excerpt: 4. Experiment on In Vitro Killing of PC-3 Cell
# PC-3 cells i.e. prostate cancer cells, which are bought from American ATCC, is a kind of adherent cells.
# Its medium, culture conditions and experimental procedures are all the same with that of the above method 1.
SMILES,IC50 [1],IC80 [1],synergistic effects in combination [2],anti-tumor effect and side effects in the animal model ([3]; alone or in combination with 5-fluorouracil),Death number [3],Average weight of tumor [3],Tumor inhibiting rate [3],IC50 [4],IC80 [4],ratio of glucose reduction ([5]; average after-meal glucose with vs without drug intake),"Average blood glucose, drug intake, after meal ([5]; average of three patients, two hours after meal)","effect on controlling postprandial blood glucose ([5]; high-blood-glucose patients, compared with soybean)","Blood glucose, drug intake, before meal ([5]; individual patient, oral dose before meal)","Blood glucose, drug intake, after meal ([5]; individual patient, two hours after 300 g boiled corn, oral dose before meal)",IC50 [6],IC80 [6],IC50 [7],IC80 [7]
C=CC(C)(C)c1cc(/C=C/C(=O)c2ccc(O)cc2)c(OC)cc1O [Chalcone A],9.7 µg/mL,29.70 µg/mL,synergistic effects,reduce the side effects brought by 5-fluorouracil dose,0,2.36 ± 0.13 g,23%,9.1 µg/mL,24.77 µg/mL,13.6%,11.4 mM/L,significant effects,7.9 mM/L and 8.6 mM/L and 8.5 mM/L,10.6 mM/L and 12.0 mM/L and 11.6 mM/L,9.1 µg/mL,21.3 µg/mL,7.8 µg/mL,13.3 µg/mL
"c1ccc2c(Cc3c[nH]c4ccccc34)c[nH]c2c1 [HBD09, bis-indolymethane]",18.2 µg/mL,51.24 µg/mL,–,–,2,2.6 ± 0.15 g,15%,18.59 µg/mL,48.51 µg/mL,–,–,–,–,–,15.6 µg/mL,31.2 µg/mL,13.8 µg/mL,23.9 µg/mL
"O=c1[nH]cc(F)c(=O)[nH]1 [CK1(fu), 5-fluorouracil]",–,–,–,–,6,1.74 ± 0.11 g,43%,–,–,–,–,–,–,–,–,–,–,–
N.N.[Cl][Pt][Cl] [Cis-platinum],5.4 µg/mL,–,–,–,–,–,–,3.92 µg/mL,–,–,–,–,–,–,3.92 µg/mL,–,–,–
